These results are taken from publication PMC12388242, “Cytotoxic Peptidic Metabolites Isolated from the Soil-Derived Fungus Trichoderma atroviride” (Molecules, 2025).

Series [1] relates to HCT-8 (colon cancer) cells. The series is described as follows: MTT cell viability assay, HCT-8 cells. The note with it: for IC50: read-out: IC50 against HCT-8 (Colon Cancer). The protocol: (§1) HCT-8 (colorectal carcinoma), and SK-OV-3 (ovarian cancer) cell lines were obtained from the American Type Culture Collection (ATCC; Manassas, VA, USA). The cells were cultured in RPMI-1640 medium (Cytiva, Marlborough, MA, USA) supplemented with 10% fetal bovine serum (FBS), 100 U/mL penicillin, and streptomycin, and incubated in a humidified atmosphere with 5% CO2 at 37 °C [23].
(§2) Cell viability was determined using the 3-(4,5-dimethylthiazol-2-yl)-2,5-diphenyltetrazolium bromide (MTT) colorimetric assay (Sigma Chemical Co., St. Louis, MO). Cells were seeded in 96-well plates and incubated at 37 °C for 24 h. Subsequently, cells were treated with isolated compounds at concentrations of 2, 20, and 100 μM for an additional 24 h. After treatment, 25 μL of MTT solution (5 mg/mL; Thermo Fisher Scientific, Waltham, MA, USA) was added to each well and incubated for 3 h. The resulting formazan crystals were dissolved in 100 μL of dimethyl sulfoxide, and the absorbance was measured at 550 nm using an ELx808 microplate reader (BioTek Instruments Inc., Winooski, VT, USA).
On the technique in general: Tetrazolium assays rely on reduction of a dye to a coloured formazan, in cell work by metabolically active cells.

The subject of series [2] is SK-OV-3 (ovarian cancer) cells. The series is described as follows: MTT cell viability assay, SK-OV-3 cells. The note with it: for IC50: read-out: IC50 against SK-OV-3 (Ovarian Cancer). On the procedure:
as §1, §2

Where [3] appears, read: MTT colorimetric assay, 96-well plates, treated at 2, 20, and 100 μM for 24 h, absorbance at 550 nm, mean ± standard deviation from triplicate experiments.

The structures appear in SMILES notation. Several values for one entry are separate records, joined by “and”; a condition that tells them apart may be missing. Identical values can stand only once. Like-named read-outs stand apart in the source and are kept apart here. Where a SMILES comes first, the peptide text is derived from it. [ ]: non-standard residue; d: D form. The star is where a group is joined. X2 = CO[C@@H]1NC(=O)CC[C@@H]1N*; X3 = O=C1CC[C@H](N*)[C@@H](O)N1; X1 = O=C1CC[C@H](N*)[C@H](O)N1; Valol = CC(C)[C@@H](CO)N*; Aib = CC(C)(N)C(=O)O Some results are limits rather than exact numbers.

Take `CC[C@H](C)[C@H](NC(=O)C(C)(C)NC(=O)[C@@H](NC(=O)[C@@H]1CCCN1C(=O)C(C)(C)NC(=O)[C@H](CC(C)C)NC(=O)[C@H](CO)NC(=O)C(C)(C)NC(=O)C(C)(C)NC(=O)C(C)(C)NC(=O)[C@H](CCC(N)=O)NC(=O)C(C)(C)NC(=O)C(C)(C)NC(=O)[C@H](C)NC(=O)CNC(=O)[C@H](Cc1c[nH]c2ccccc12)NC(C)=O)C(C)C)C(=O)N[C@H]1CCC(=O)N[C@H]1O` [Compound 7, bukhansantaibol G] (Ac-WGA[Aib][Aib]Q[Aib][Aib][Aib]SL[Aib]PV[Aib]I-X1): the 50% inhibitory concentration (IC50) in series [1] (setting [3]) and in series [2] (setting [3]) was over 50 µM in each case.

Take `CC[C@H](C)[C@H](NC(=O)C(C)(C)NC(C)=O)C(=O)NC(C)(C)C(=O)N[C@@H](Cc1ccc(O)cc1)C(=O)NC(C)(C)C(=O)N[C@H](C(=O)NC(C)(C)C(=O)N[C@@H](C)C(=O)NC(C)(C)C(=O)NC(C)(C)C=O)[C@@H](C)CC` [Compound 12, bukhansantaibal B] (Ac-[Aib]I[Aib]Y[Aib]I[Aib]A[Aib][Aib]-aldehyde): the “cytotoxicity against HCT-8 cells, in words” value in series [1] is on record as “inactivity”. The IC50 in series [1] (setting [3]) and in series [2] (setting [3]) was over 50 µM in each case. Also, the “cytotoxicity against SK-OV-3 cells, in words” value in series [2] is “inactivity”.

As for `CC[C@H](C)[C@H](NC(=O)C(C)(C)NC(=O)[C@@H](NC(=O)[C@@H]1CCCN1C(=O)C(C)(C)NC(=O)[C@H](CC(C)C)NC(=O)[C@H](CO)NC(=O)C(C)(C)NC(=O)C(C)(C)NC(=O)C(C)(C)NC(=O)[C@H](CCC(N)=O)NC(=O)C(C)(C)NC(=O)C(C)(C)NC(=O)[C@H](C)NC(=O)CNC(=O)[C@H](Cc1ccccc1)NC(C)=O)C(C)C)C(=O)N[C@@H](CCC(=O)O)C(=O)N[C@@H](CCC(N)=O)C(=O)N[C@H](CO)C(C)C` [Compound 6, bukhansantaibol F] (Ac-FGA[Aib][Aib]Q[Aib][Aib][Aib]SL[Aib]PV[Aib]IEQ-Valol), the half-inhibitory concentration (IC50) in series [1] (setting [3]) and in series [2] (setting [3]) was over 50 µM each time.

For `CC[C@H](C)[C@H](NC(=O)C(C)(C)NC(=O)[C@@H](NC(=O)[C@@H]1CCCN1C(=O)C(C)(C)NC(=O)[C@H](CC(C)C)NC(=O)[C@H](CO)NC(=O)C(C)(C)NC(=O)C(C)(C)NC(=O)C(C)(C)NC(=O)[C@H](CCC(N)=O)NC(=O)C(C)(C)NC(=O)C(C)(C)NC(=O)[C@H](C)NC(=O)CNC(=O)[C@H](Cc1ccccc1)NC(C)=O)C(C)C)C(=O)N[C@@H](CCC(N)=O)C(=O)N[C@@H](CCC(N)=O)C(=O)N[C@H](CO)C(C)C` [Compound 3, bukhansantaibol C] (Ac-FGA[Aib][Aib]Q[Aib][Aib][Aib]SL[Aib]PV[Aib]IQQ-Valol), the concentration for half-maximal inhibition (IC50) in series [1] (setting [3]) was determined as 18.5 ± 0.6 µM; in series [2] (setting [3]), 19.6 ± 0.1 µM.

`CC[C@H](C)[C@H](NC(=O)C(C)(C)NC(=O)[C@@H](NC(=O)[C@@H]1CCCN1C(=O)C(C)(C)NC(=O)[C@H](CC(C)C)NC(=O)[C@H](C)NC(=O)C(C)(C)NC(=O)C(C)(C)NC(=O)C(C)(C)NC(=O)[C@H](CCC(N)=O)NC(=O)C(C)(C)NC(=O)C(C)(C)NC(=O)[C@H](C)NC(=O)CNC(=O)[C@H](Cc1c[nH]c2ccccc12)NC(C)=O)C(C)C)C(=O)N[C@@H](CCC(N)=O)C(=O)N[C@@H](CCC(N)=O)C(=O)N[C@H](CO)C(C)C` [Compound 4, bukhansantaibol D] (Ac-WGA[Aib][Aib]Q[Aib][Aib][Aib]AL[Aib]PV[Aib]IQQ-Valol): the 50% inhibitory concentration (IC50) in series [1] (setting [3]) was < 10 µM and 7.7 µM; in series [2] (setting [3]) it was < 10 µM and 5.7 µM.

As for `CC[C@H](C)[C@H](NC(=O)C(C)(C)NC(=O)[C@@H](NC(=O)[C@@H]1CCCN1C(=O)C(C)(C)NC(=O)[C@H](CC(C)C)NC(=O)[C@H](CO)NC(=O)C(C)(C)NC(=O)C(C)(C)NC(=O)C(C)(C)NC(=O)[C@H](CCC(N)=O)NC(=O)C(C)(C)NC(=O)C(C)(C)NC(=O)[C@H](C)NC(=O)CNC(=O)[C@H](Cc1c[nH]c2ccccc12)NC(C)=O)C(C)C)C(=O)N[C@H]1CCC(=O)N[C@H]1OC` [Compound 9, bukhansantaibol I] (Ac-WGA[Aib][Aib]Q[Aib][Aib][Aib]SL[Aib]PV[Aib]I-X2), in series [1], the “cytotoxicity against HCT-8 cells, in words” value is on record as “marked loss of cytotoxicity”. Also, the IC50 in series [1] (setting [3]) and in series [2] (setting [3]) was over 50 µM in each case. Moreover, in series [2], the “cytotoxicity against SK-OV-3 cells, in words” value is “marked loss of cytotoxicity”.

In the case of `CC[C@H](C)[C@H](NC(=O)C(C)(C)NC(C)=O)C(=O)NC(C)(C)C(=O)N[C@@H](Cc1ccc(O)cc1)C(=O)NC(C)(C)C(=O)N[C@@H](CC(C)C)C(=O)NC(C)(C)C(=O)N[C@@H](C)C(=O)NC(C)(C)C(=O)NC(C)(C)C=O` [Compound 11, bukhansantaibal A] (Ac-[Aib]I[Aib]Y[Aib]L[Aib]A[Aib][Aib]-aldehyde), the “cytotoxicity against HCT-8 cells, in words” value in series [1] is “inactivity”. Besides, the 50% inhibitory concentration (IC50) in series [1] (setting [3]) and in series [2] (setting [3]) was over 50 µM throughout. Besides, the “cytotoxicity against SK-OV-3 cells, in words” value in series [2] is reported as “inactivity”.

On to `CC[C@H](C)[C@H](NC(=O)C(C)(C)NC(=O)[C@@H](NC(=O)[C@@H]1CCCN1C(=O)C(C)(C)NC(=O)[C@H](CC(C)C)NC(=O)[C@H](CO)NC(=O)C(C)(C)NC(=O)C(C)(C)NC(=O)C(C)(C)NC(=O)[C@H](CCC(N)=O)NC(=O)C(C)(C)NC(=O)C(C)(C)NC(=O)[C@H](C)NC(=O)CNC(=O)[C@H](Cc1ccccc1)NC(C)=O)C(C)C)C(=O)N[C@H]1CCC(=O)N[C@H]1OC` [Compound 10, bukhansantaibol J] (Ac-FGA[Aib][Aib]Q[Aib][Aib][Aib]SL[Aib]PV[Aib]I-X2), for which the “cytotoxicity against HCT-8 cells, in words” value in series [1] is “marked loss of cytotoxicity”. In addition, the IC50 in series [1] (setting [3]) and in series [2] (setting [3]) was over 50 µM throughout. The “cytotoxicity against SK-OV-3 cells, in words” value in series [2] was “marked loss of cytotoxicity”.

For `COc1cc([C@@H]2c3cc4c(cc3[C@@H](O[C@@H]3O[C@@H]5CO[C@@H](C)O[C@H]5[C@H](O)[C@H]3O)[C@H]3COC(=O)[C@H]23)OCO4)cc(OC)c1O` [Etoposide, reference compound], the IC50 in series [1] (Homo sapiens, HCT-8, 24 h) was found to be 33.7 ± 1.5 µM; in series [2] (Homo sapiens, SK-OV-3, 24 h), 37.3 ± 1.8 µM.

In the case of `CC(=O)N[C@@H](Cc1c[nH]c2ccccc12)C(=O)NCC(=O)N[C@@H](C)C(=O)NC(C)(C)C(=O)NC(C)(C)C(=O)N[C@@H](CCC(N)=O)C(=O)NC(C)(C)C(=O)NC(C)(C)C(=O)NC(C)(C)C(=O)N[C@@H](CO)C(=O)N[C@@H](CC(C)C)C(=O)NC(C)(C)C(=O)N1CCC[C@H]1C(=O)N[C@H](C(=O)NC(C)(C)C(=O)N[C@@H](CC(C)C)C(=O)N[C@@H](CCC(N)=O)C(=O)N[C@@H](CCC(N)=O)C(=O)N[C@H](CO)C(C)C)C(C)C` [Compound 2, bukhansantaibol B] (Ac-WGA[Aib][Aib]Q[Aib][Aib][Aib]SL[Aib]PV[Aib]LQQ-Valol), the 50% inhibitory concentration (IC50) in series [1] (setting [3]) was determined as 11.7 ± 0.8 µM; in series [2] (setting [3]), 13.8 ± 1 µM.

With `CC[C@H](C)[C@H](NC(=O)C(C)(C)NC(=O)[C@@H](NC(=O)[C@@H]1CCCN1C(=O)C(C)(C)NC(=O)[C@H](CC(C)C)NC(=O)[C@H](CO)NC(=O)C(C)(C)NC(=O)C(C)(C)NC(=O)C(C)(C)NC(=O)[C@H](CCC(N)=O)NC(=O)C(C)(C)NC(=O)C(C)(C)NC(=O)[C@H](C)NC(=O)CNC(=O)[C@H](Cc1c[nH]c2ccccc12)NC(C)=O)C(C)C)C(=O)N[C@H]1CCC(=O)N[C@@H]1O` [Compound 8, bukhansantaibol H] (Ac-WGA[Aib][Aib]Q[Aib][Aib][Aib]SL[Aib]PV[Aib]I-X3), the IC50 in series [1] (setting [3]) and in series [2] (setting [3]) was over 50 µM throughout.

One may read the IC50 as the concentration that gives 50% inhibition.
